Tested on: 596521-263-R-J1-PDC complex spheroid growth
Assay: Anticancer human tumor 596521-263-R-J1-PDC patient-derived soft tissue sarcoma cell line growth inhibition [Asc]
Conditions: for IC50: curve of first compound; for viability, T/C: stronger effect = lower value; active means viability on the fitted dose curve at most 10% of control; inactive means the rest
Summary of the method: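 Spheroid model: tumor line + HUVEC + hMSC. Single agents and combinations; top conc. at/near clinical Cmax (10 microM if undetermined), half-log dilutions. DMSO stocks at 800-fold test concentration.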

[1] = second compound 0.00949 µM, first compound 0.0316 µM
[2] = second compound 0.00949 µM, first compound 0.1 µM
[3] = second compound 0.00949 µM, first compound 0.316 µM
[4] = second compound 0.00949 µM, first compound 1 µM
[5] = second compound 0.00949 µM, first compound 3.16 µM
[6] = second compound 0.00949 µM, first compound 10 µM
[7] = second compound 0.03 µM, first compound 0.0316 µM
[8] = second compound 0.03 µM, first compound 0.1 µM
[9] = second compound 0.03 µM, first compound 0.316 µM
[10] = second compound 0.03 µM, first compound 1 µM
[11] = second compound 0.03 µM, first compound 3.16 µM
[12] = second compound 0.03 µM, first compound 10 µM
[13] = second compound 0.0949 µM, first compound 0.0316 µM
[14] = second compound 0.0949 µM, first compound 0.1 µM
[15] = second compound 0.0949 µM, first compound 0.316 µM
[16] = second compound 0.0949 µM, first compound 1 µM
[17] = second compound 0.0949 µM, first compound 3.16 µM
[18] = second compound 0.0949 µM, first compound 10 µM
[19] = second compound 0.3 µM, first compound 0.0316 µM
[20] = second compound 0.3 µM, first compound 0.1 µM
[21] = second compound 0.3 µM, first compound 0.316 µM
[22] = second compound 0.3 µM, first compound 1 µM
[23] = second compound 0.3 µM, first compound 3.16 µM
[24] = second compound 0.3 µM, first compound 10 µM
[25] = second compound 0.949 µM, first compound 0.0316 µM
[26] = second compound 0.949 µM, first compound 0.1 µM
[27] = second compound 0.949 µM, first compound 0.316 µM
[28] = second compound 0.949 µM, first compound 1 µM
[29] = second compound 0.949 µM, first compound 3.16 µM
[30] = second compound 0.949 µM, first compound 10 µM
[31] = second compound 3 µM, first compound 0.0316 µM
[32] = second compound 3 µM, first compound 0.1 µM
[33] = second compound 3 µM, first compound 0.316 µM
[34] = second compound 3 µM, first compound 1 µM
[35] = second compound 3 µM, first compound 3.16 µM
[36] = second compound 3 µM, first compound 10 µM
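Further: spheroids exposed to compounds for 7 days.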

C=C(F)C(=O)N1CCN(c2nc(OCC3CCCN3C)nc3c2CCN(c2cccc4cccc(Cl)c24)C3)CC1CC#N (centres undefined) + CCN1C(C(=O)NC23CCC(C(=O)O)(CC2)CC3)C(c2cccc(Cl)c2F)C2(C(=O)Nc3cc(Cl)ccc32)C12CCCCC2
inactive: viability, T/C [1] 106% | viability, T/C [2] 102% | viability, T/C [3] 91.2% | viability, T/C [4] 104% | viability, T/C [5] 88.7% | viability, T/C [7] 101% | viability, T/C [8] 90.4% | viability, T/C [9] 97.5% | viability, T/C [10] 97.3% | viability, T/C [11] 85.3% | viability, T/C [13] 94.3% | viability, T/C [14] 96.4% | viability, T/C [15] 106% | viability, T/C [16] 101% | viability, T/C [17] 86.1% | viability, T/C [19] 98.7% | viability, T/C [20] 107% | viability, T/C [21] 101% | viability, T/C [22] 100% | viability, T/C [23] 83.6% | viability, T/C [25] 109% | viability, T/C [26] 97.9% | viability, T/C [27] 108% | viability, T/C [28] 105% | viability, T/C [29] 75.3% | viability, T/C [31] 97% | viability, T/C [32] 98.6% | viability, T/C [33] 102% | viability, T/C [34] 80.2% | viability, T/C [35] 75.5%
5.24 µM: IC50 (second compound 0.00949 µM)
4.53 µM: IC50 (second compound 3 µM)
5.11 µM: IC50 (second compound 0.03 µM) | IC50 (second compound 0.3 µM)
4.73 µM: IC50 (second compound 0.949 µM)
active: viability, T/C [6] 0.73% | viability, T/C [12] 0.62% | viability, T/C [18] 1.83% | viability, T/C [24] 2.96% | viability, T/C [30] 2.73% | viability, T/C [36] 2.66%
5.18 µM: IC50 (second compound 0.0949 µM)

C=CC(=O)N1CCN(c2nc(=O)n(-c3c(C)ccnc3C(C)C)c3nc(-c4c(O)cccc4F)c(F)cc23)C(C)C1 (centres undefined) + CCN1C(C(=O)NC23CCC(C(=O)O)(CC2)CC3)C(c2cccc(Cl)c2F)C2(C(=O)Nc3cc(Cl)ccc32)C12CCCCC2
> 10 µM: IC50 (second compound 0.00949 µM) | IC50 (second compound 0.03 µM) | IC50 (second compound 0.0949 µM) | IC50 (second compound 0.3 µM) | IC50 (second compound 0.949 µM) | IC50 (second compound 3 µM)
inactive: viability, T/C [1] 102% | viability, T/C [2] 101% | viability, T/C [3] 123% | viability, T/C [4] 114% | viability, T/C [5] 113% | viability, T/C [6] 70.7% | viability, T/C [7] 108% | viability, T/C [8] 99.6% | viability, T/C [9] 94.5% | viability, T/C [10] 125% | viability, T/C [11] 114% | viability, T/C [12] 67.7% | viability, T/C [13] 118% | viability, T/C [14] 111% | viability, T/C [15] 113% | viability, T/C [16] 108% | viability, T/C [17] 103% | viability, T/C [18] 86.1% | viability, T/C [19] 108% | viability, T/C [20] 99.2% | viability, T/C [21] 106% | viability, T/C [22] 117% | viability, T/C [23] 112% | viability, T/C [24] 73.7% | viability, T/C [25] 103% | viability, T/C [26] 101% | viability, T/C [27] 96.2% | viability, T/C [28] 113% | viability, T/C [29] 111% | viability, T/C [30] 80.9% | viability, T/C [31] 86.8% | viability, T/C [32] 81.9% | viability, T/C [33] 91.6% | viability, T/C [34] 98.2% | viability, T/C [35] 89.4% | viability, T/C [36] 70.3%

— PubChem BioAssay AID1963449 (Molecular Pharmacology Branch, DTP, NCI, 2024)
